Experiments:
Experiment in all cases: KINOMEscan
Type in all cases: binding
Conditions in all cases: read-out: Remaining enzyme activity
MEK3 = biological target: T1, MEK3 (Homo sapiens, UniProt P46734)
T1 construct: purchased Ambit (DiscoverX) KINOMEscan; Cerep
Procedure, shortened: (§1)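 Kinase preparations were T7 phage fusions produced in E. coli (32 °C until lysis, lysates clarified) or HEK-293-expressed proteins with DNA tags. These were mixed with immobilized active-site ligand and SC81458 at 10 μM. The amount of kinase in eluates was determined by qPCR.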

ERBB3 = biological target: T2, ERBB3 (Homo sapiens, UniProt P21860)
T2 construct: purchased Ambit (DiscoverX) KINOMEscan; Cerep
T2 sequence (P21860 20-1342): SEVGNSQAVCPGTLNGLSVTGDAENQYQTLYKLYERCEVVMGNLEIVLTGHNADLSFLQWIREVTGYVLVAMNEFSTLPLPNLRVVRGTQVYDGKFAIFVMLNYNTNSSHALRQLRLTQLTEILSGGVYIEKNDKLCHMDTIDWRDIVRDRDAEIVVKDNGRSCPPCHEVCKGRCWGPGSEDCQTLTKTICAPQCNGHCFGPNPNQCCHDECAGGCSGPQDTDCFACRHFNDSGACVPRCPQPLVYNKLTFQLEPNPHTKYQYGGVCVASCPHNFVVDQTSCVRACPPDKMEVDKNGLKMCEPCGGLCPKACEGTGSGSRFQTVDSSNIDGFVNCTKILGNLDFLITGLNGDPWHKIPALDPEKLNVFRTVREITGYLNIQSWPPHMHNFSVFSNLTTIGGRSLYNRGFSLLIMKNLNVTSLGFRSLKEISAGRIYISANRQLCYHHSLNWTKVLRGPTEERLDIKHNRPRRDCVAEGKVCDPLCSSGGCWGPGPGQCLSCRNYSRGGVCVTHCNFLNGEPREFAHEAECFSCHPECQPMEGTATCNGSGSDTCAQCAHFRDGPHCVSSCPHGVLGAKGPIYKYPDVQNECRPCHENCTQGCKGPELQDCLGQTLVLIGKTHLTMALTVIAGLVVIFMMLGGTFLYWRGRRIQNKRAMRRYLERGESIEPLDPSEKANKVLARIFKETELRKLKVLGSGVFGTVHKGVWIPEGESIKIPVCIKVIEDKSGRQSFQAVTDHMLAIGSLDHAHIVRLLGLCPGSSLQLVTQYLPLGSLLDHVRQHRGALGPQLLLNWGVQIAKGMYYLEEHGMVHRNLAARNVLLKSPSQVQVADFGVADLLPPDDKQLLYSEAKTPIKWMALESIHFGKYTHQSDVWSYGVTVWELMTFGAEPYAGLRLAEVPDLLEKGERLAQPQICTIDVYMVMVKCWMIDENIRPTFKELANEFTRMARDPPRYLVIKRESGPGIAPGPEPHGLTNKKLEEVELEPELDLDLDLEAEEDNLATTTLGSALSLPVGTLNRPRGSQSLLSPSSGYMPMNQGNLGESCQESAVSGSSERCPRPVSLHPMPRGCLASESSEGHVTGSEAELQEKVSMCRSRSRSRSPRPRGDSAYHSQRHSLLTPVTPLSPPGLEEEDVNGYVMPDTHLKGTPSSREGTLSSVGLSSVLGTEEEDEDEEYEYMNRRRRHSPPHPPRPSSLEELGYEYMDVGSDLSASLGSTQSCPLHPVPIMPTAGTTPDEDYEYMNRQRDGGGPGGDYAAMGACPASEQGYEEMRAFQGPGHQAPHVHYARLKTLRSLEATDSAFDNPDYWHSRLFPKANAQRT
Procedure, shortened: as §1

TAOK3 = biological target: T3, TAOK3 (Homo sapiens, UniProt Q9H2K8)
T3 construct: purchased Ambit (DiscoverX) KINOMEscan; Cerep
Procedure, shortened: as §1

PKAC-apha = biological target: T4, PKAC-apha (Homo sapiens, UniProt P17612)
T4 construct: purchased Ambit (DiscoverX) KINOMEscan; Cerep
Procedure, shortened: as §1

CTK = biological target: T5, CTK (Homo sapiens, UniProt P42679)
T5 construct: purchased Ambit (DiscoverX) KINOMEscan; Cerep
Procedure, shortened: as §1

DCAMKL3 = biological target: T6, DCAMKL3 (Homo sapiens, UniProt Q9C098)
T6 construct: purchased Ambit (DiscoverX) KINOMEscan; Cerep
Procedure, shortened: as §1

ZAP70 = biological target: T7, ZAP70 (Homo sapiens, UniProt P43403)
T7 construct: purchased Ambit (DiscoverX) KINOMEscan; Cerep
Procedure, shortened: as §1

[1] = biological target: T8, RPS6KA6(Kin.Dom.1-N-term) (Homo sapiens, UniProt Q9UK32)
T8 construct: RPS6KA6(Kin.Dom.1-N-term); purchased Ambit (DiscoverX) KINOMEscan; Cerep
Procedure, shortened: as §1

ITK = biological target: T9, ITK (Homo sapiens, UniProt Q08881)
T9 construct: purchased Ambit (DiscoverX) KINOMEscan; Cerep
Procedure, shortened: as §1

SIK = biological target: T10, SIK (Homo sapiens, UniProt P57059)
T10 construct: purchased Ambit (DiscoverX) KINOMEscan; Cerep
Procedure, shortened: as §1

CAMK2b = biological target: T11, CAMK2b (Homo sapiens, UniProt Q13554)
T11 construct: purchased Ambit (DiscoverX) KINOMEscan; Cerep
Procedure, shortened: as §1

LIMK1 = biological target: T12, LIMK1 (Homo sapiens, UniProt P53667)
T12 construct: purchased Ambit (DiscoverX) KINOMEscan; Cerep
Procedure, shortened: as §1

RET = biological target: T13, RET (Homo sapiens, UniProt P07949)
T13 construct: purchased Ambit (DiscoverX) KINOMEscan; Cerep
Procedure, shortened: as §1

PCTK2 = biological target: T14, PCTK2 (Homo sapiens, UniProt Q00537)
T14 construct: purchased Ambit (DiscoverX) KINOMEscan; Cerep
Procedure, shortened: as §1

CAMKK1 = biological target: T15, CAMKK1 (Homo sapiens, UniProt Q8N5S9)
T15 construct: purchased Ambit (DiscoverX) KINOMEscan; Cerep
Procedure, shortened: as §1

WEE1 = biological target: T16, WEE1 (Homo sapiens, UniProt P30291)
T16 construct: purchased Ambit (DiscoverX) KINOMEscan; Cerep
Procedure, shortened: as §1

EGFR(S752-I759del) = biological target: T17, EGFR(S752-I759del) (Homo sapiens, UniProt P00533, DEL752-759)
T17 construct: purchased Ambit (DiscoverX) KINOMEscan; Cerep
Procedure, shortened: as §1

CSNK1e = biological target: T18, CSNK1e (Homo sapiens, UniProt P49674)
T18 construct: purchased Ambit (DiscoverX) KINOMEscan; Cerep
T18 sequence (P49674 whole entry): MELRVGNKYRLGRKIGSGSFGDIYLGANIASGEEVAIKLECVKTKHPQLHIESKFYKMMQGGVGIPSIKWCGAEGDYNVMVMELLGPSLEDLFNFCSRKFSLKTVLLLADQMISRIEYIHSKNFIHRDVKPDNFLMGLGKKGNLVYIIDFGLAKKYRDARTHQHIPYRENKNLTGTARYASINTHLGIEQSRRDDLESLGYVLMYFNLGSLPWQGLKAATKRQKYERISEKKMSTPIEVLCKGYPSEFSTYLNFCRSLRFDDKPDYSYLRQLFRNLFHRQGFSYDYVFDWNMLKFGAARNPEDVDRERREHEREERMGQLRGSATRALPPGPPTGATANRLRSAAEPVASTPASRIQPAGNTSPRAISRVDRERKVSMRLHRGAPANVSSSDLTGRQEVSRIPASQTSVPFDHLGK
Procedure, shortened: as §1

[2] = biological target: T19, JAK3(JH1domain-catalytic) (Homo sapiens, UniProt P52333)
T19 construct: JAK3(JH1domain-catalytic); purchased Ambit (DiscoverX) KINOMEscan; Cerep
T19 sequence (P52333 822-1124 limits assumed): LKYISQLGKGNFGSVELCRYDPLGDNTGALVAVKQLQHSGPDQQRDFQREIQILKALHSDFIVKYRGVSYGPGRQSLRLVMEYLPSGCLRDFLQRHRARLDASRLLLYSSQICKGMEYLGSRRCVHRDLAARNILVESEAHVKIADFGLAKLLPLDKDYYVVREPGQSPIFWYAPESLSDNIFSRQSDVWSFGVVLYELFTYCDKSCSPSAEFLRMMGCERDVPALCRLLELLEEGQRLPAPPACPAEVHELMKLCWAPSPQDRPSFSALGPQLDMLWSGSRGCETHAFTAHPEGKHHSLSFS
Procedure, shortened: as §1

BLK = biological target: T20, BLK (Homo sapiens, UniProt P51451)
T20 construct: purchased Ambit (DiscoverX) KINOMEscan; Cerep
Procedure, shortened: as §1

JNK2 = biological target: T21, JNK2 (Homo sapiens, UniProt P45984)
T21 construct: purchased Ambit (DiscoverX) KINOMEscan; Cerep
T21 sequence (P45984 whole entry): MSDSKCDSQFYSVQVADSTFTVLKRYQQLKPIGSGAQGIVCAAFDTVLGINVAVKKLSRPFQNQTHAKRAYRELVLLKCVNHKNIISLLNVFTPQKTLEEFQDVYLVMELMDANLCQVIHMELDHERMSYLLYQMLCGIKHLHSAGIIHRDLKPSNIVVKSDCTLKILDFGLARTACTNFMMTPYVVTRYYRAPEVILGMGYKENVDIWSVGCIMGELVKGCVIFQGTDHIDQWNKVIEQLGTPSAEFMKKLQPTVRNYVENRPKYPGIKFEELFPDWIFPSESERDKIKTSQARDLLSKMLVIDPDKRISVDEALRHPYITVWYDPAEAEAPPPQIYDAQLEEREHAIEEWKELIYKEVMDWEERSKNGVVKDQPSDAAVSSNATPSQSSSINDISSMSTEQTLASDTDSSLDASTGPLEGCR
Procedure, shortened: as §1

DDR1 = biological target: T22, DDR1 (Homo sapiens, UniProt Q08345)
T22 construct: purchased Ambit (DiscoverX) KINOMEscan; Cerep
Procedure, shortened: as §1

YANK3 = biological target: T23, YANK3 (Homo sapiens, UniProt Q86UX6)
T23 construct: purchased Ambit (DiscoverX) KINOMEscan; Cerep
T23 sequence (Q86UX6 whole entry): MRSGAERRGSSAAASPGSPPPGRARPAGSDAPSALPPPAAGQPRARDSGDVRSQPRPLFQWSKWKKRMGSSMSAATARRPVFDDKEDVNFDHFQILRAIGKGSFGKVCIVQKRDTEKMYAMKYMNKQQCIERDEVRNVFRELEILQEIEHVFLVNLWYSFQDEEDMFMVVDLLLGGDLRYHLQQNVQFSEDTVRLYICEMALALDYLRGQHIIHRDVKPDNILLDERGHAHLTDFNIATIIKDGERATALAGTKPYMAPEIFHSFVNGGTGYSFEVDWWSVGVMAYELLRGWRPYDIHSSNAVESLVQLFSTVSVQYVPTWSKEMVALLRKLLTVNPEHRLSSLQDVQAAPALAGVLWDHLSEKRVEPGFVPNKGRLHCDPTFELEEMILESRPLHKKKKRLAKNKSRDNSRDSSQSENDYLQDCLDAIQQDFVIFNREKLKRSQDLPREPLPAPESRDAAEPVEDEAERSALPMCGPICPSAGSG
Procedure, shortened: as §1

AURKC = biological target: T24, AURKC (Homo sapiens, UniProt Q9UQB9)
T24 construct: purchased Ambit (DiscoverX) KINOMEscan; Cerep
Procedure, shortened: as §1

STK39 = biological target: T25, STK39 (Homo sapiens, UniProt Q9UEW8)
T25 construct: purchased Ambit (DiscoverX) KINOMEscan; Cerep
Procedure, shortened: as §1

KIT(L576P) = biological target: T26, KIT(L576P) (Homo sapiens, UniProt P10721, L576P)
T26 construct: purchased Ambit (DiscoverX) KINOMEscan; Cerep
T26 sequence (P10721 26-976 L576P): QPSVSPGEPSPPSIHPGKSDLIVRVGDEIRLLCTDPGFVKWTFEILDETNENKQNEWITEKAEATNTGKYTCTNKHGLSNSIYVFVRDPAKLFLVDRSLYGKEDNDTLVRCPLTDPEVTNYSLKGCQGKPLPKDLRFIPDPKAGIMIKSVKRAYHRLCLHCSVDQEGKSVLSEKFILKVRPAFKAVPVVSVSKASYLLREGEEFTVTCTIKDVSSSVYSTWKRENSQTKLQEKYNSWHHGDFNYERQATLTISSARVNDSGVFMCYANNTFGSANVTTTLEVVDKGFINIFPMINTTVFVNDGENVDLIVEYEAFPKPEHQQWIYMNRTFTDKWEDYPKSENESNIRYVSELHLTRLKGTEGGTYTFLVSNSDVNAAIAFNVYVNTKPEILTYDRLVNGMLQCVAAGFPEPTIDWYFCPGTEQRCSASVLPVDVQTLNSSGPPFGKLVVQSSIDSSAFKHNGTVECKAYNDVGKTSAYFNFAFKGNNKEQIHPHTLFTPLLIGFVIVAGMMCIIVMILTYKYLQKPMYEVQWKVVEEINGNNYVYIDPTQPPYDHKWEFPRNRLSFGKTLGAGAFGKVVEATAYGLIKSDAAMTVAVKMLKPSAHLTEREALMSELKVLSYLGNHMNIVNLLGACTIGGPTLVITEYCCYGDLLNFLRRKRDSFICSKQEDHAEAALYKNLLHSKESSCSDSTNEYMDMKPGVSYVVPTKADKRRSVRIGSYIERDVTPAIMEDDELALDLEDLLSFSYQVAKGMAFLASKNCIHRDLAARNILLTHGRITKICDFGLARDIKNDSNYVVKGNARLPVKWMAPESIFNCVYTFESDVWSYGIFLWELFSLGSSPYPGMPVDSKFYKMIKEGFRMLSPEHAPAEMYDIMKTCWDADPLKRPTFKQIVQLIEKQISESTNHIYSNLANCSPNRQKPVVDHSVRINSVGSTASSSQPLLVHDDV
Procedure, shortened: as §1

TIE1 = biological target: T27, TIE1 (Homo sapiens, UniProt P35590)
T27 construct: purchased Ambit (DiscoverX) KINOMEscan; Cerep
T27 sequence (P35590 22-1138): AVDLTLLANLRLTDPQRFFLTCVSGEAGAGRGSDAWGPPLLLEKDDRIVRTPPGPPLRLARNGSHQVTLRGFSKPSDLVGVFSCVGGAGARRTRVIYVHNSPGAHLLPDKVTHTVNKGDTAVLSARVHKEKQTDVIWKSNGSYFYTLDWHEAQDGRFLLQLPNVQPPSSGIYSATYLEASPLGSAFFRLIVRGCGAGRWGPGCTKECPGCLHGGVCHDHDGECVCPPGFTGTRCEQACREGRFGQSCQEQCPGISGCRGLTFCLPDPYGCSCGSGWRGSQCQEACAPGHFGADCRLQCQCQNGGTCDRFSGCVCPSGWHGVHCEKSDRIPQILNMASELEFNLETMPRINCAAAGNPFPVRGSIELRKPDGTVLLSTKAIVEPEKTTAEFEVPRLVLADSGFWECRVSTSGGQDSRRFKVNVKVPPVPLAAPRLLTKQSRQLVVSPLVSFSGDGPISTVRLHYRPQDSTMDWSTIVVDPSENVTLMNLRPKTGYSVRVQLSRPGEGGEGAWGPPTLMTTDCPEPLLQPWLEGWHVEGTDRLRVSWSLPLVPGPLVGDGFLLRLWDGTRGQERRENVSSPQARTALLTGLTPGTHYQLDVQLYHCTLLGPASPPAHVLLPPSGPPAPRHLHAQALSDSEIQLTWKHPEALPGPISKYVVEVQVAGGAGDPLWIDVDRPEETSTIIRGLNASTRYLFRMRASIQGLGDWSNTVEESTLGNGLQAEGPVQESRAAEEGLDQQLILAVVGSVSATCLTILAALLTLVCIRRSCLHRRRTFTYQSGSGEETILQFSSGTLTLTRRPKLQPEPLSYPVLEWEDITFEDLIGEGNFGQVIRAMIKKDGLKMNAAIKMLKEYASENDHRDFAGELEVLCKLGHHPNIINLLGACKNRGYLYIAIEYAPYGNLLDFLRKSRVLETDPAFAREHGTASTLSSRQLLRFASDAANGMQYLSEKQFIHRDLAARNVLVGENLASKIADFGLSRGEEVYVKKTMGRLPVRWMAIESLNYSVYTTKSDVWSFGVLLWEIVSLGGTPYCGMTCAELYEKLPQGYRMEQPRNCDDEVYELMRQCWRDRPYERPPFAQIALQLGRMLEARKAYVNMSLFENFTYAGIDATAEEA
Procedure, shortened: as §1

TXK = biological target: T28, TXK (Homo sapiens, UniProt P42681)
T28 construct: purchased Ambit (DiscoverX) KINOMEscan; Cerep
Procedure, shortened: as §1

FGFR4 = biological target: T29, FGFR4 (Homo sapiens, UniProt P22455)
T29 construct: purchased Ambit (DiscoverX) KINOMEscan; Cerep
Procedure, shortened: as §1

DAPK2 = biological target: T30, DAPK2 (Homo sapiens, UniProt Q9UIK4)
T30 construct: purchased Ambit (DiscoverX) KINOMEscan; Cerep
Procedure, shortened: as §1

TSSK1B = biological target: T31, TSSK1B (Homo sapiens, UniProt Q9BXA7)
T31 construct: purchased Ambit (DiscoverX) KINOMEscan; Cerep
Procedure, shortened: as §1

MST2 = biological target: T32, MST2 (Homo sapiens, UniProt Q13188)
T32 construct: purchased Ambit (DiscoverX) KINOMEscan; Cerep
Procedure, shortened: as §1

ERK5 = biological target: T33, ERK5 (Homo sapiens, UniProt Q13164)
T33 construct: purchased Ambit (DiscoverX) KINOMEscan; Cerep
Procedure, shortened: as §1

CCCCN1CCN(C(=N)c2cccc(NC(=O)Nc3ccc(S(=O)(=O)NCc4ccc(S(N)(=O)=O)cc4)cc3)c2)CC1 [SC81458, 4-(3-(3-((4-butylpiperazin-1-yl)(imino)methyl)phenyl)ureido)-N-(4-sulfamoylbenzyl) benzenesulfonamide]
remaining binding at 10 µM (MEK3): 100%
remaining binding at 10 µM (ERBB3): 81%
remaining binding at 10 µM (TAOK3): 100%
remaining binding at 10 µM (PKAC-apha): 75%
remaining binding at 10 µM (CTK): 100%
remaining binding at 10 µM (DCAMKL3): 62%
remaining binding at 10 µM (ZAP70): 89%
remaining binding at 10 µM [1]: 68%
remaining binding at 10 µM (ITK): 86%
remaining binding at 10 µM (SIK): 97%
remaining binding at 10 µM (CAMK2b): 100%
remaining binding at 10 µM (LIMK1): 76%
remaining binding at 10 µM (RET): 89%
remaining binding at 10 µM (PCTK2): 97%
remaining binding at 10 µM (CAMKK1): 93%
remaining binding at 10 µM (WEE1): 100%
remaining binding at 10 µM (EGFR(S752-I759del)): 99%
remaining binding at 10 µM (CSNK1e): 100%
remaining binding at 10 µM [2]: 100%
remaining binding at 10 µM (BLK): 100%
remaining binding at 10 µM (JNK2): 97%
remaining binding at 10 µM (DDR1): 91%
remaining binding at 10 µM (YANK3): 97%
remaining binding at 10 µM (AURKC): 73%
remaining binding at 10 µM (STK39): 57%
remaining binding at 10 µM (KIT(L576P)): 66%
remaining binding at 10 µM (TIE1): 99%
remaining binding at 10 µM (TXK): 87%
remaining binding at 10 µM (FGFR4): 100%
remaining binding at 10 µM (DAPK2): 100%
remaining binding at 10 µM (TSSK1B): 97%
remaining binding at 10 µM (MST2): 100%
remaining binding at 10 µM (ERK5): 100%
